In brackets after ≈: the same amount, converted by molar mass. Activity calls are given as the source filed them. No cut-off for these calls is given here.
Legend:
Type in all cases: functional
Aspergillus flavus [1] = test: Antifungal activity against Aspergillus flavus after 72 to 96 hrs by broth dilution method
Enterococcus faecalis [2] = test: Antibacterial activity against Streptococcus faecalis after 24 hrs by broth dilution method
Klebsiella pneumoniae [3] = test: Antibacterial activity against Klebsiella pneumoniae
Klebsiella pneumoniae [4] = test: Antibacterial activity against Klebsiella pneumoniae after 24 hrs by broth dilution method
Enterococcus faecalis [5] = test: Antibacterial activity against Streptococcus faecalis
Escherichia coli [6] = test: Antibacterial activity against Escherichia coli
Bacillus subtilis [7] = test: Antibacterial activity against Bacillus subtilis after 24 hrs by broth dilution method
Pseudomonas aeruginosa [8] = test: Antibacterial activity against Pseudomonas aeruginosa after 24 hrs by broth dilution method
Aspergillus flavus [9] = test: Antifungal activity against Aspergillus flavus
Penicillium [10] = test: Antifungal activity against Penicillium after 72 to 96 hrs by broth dilution method
Escherichia coli [11] = test: Antibacterial activity against Escherichia coli after 24 hrs by broth dilution method
Aspergillus niger [12] = test: Antifungal activity against Aspergillus niger after 72 to 96 hrs by broth dilution method
Rhizopus [13] = test: Antifungal activity against Rhizopus after 72 to 96 hrs by broth dilution method
Fusarium [14] = test: Antifungal activity against Fusarium after 72 to 96 hrs by broth dilution method
Rhizopus [15] = test: Antifungal activity against Rhizopus
Pseudomonas aeruginosa [16] = test: Antibacterial activity against Pseudomonas aeruginosa
Fusarium [17] = test: Antifungal activity against Fusarium
Bacillus subtilis [18] = test: Antibacterial activity against Bacillus subtilis
Penicillium [19] = test: Antifungal activity against Penicillium
Aspergillus niger [20] = test: Antifungal activity against Aspergillus niger

CCC1/C(=N/OC(=O)OC)CC(c2ccccc2)N(C)C1c1ccccc1 (stereo not given)
MIC (Aspergillus flavus [1]): 200 µg/mL (≈ 546 µM) | MIC (Enterococcus faecalis [2]): 100 µg/mL (≈ 273 µM) | inhibition zone (IZ) (Klebsiella pneumoniae [3]): inactive | MIC (Klebsiella pneumoniae [4]): 200 µg/mL (≈ 546 µM) | inhibition zone (IZ) (Enterococcus faecalis [5]): 12 mm | inhibition zone (IZ) (Escherichia coli [6]): 12 mm | MIC (Bacillus subtilis [7]): 25 µg/mL (≈ 68.2 µM) | MIC (Pseudomonas aeruginosa [8]): 200 µg/mL (≈ 546 µM) | inhibition zone (IZ) (Aspergillus flavus [9]): inactive | MIC (Penicillium [10]): 200 µg/mL (≈ 546 µM) | MIC (Escherichia coli [11]): 25 µg/mL (≈ 68.2 µM) | MIC (Aspergillus niger [12]): 200 µg/mL (≈ 546 µM) | MIC (Rhizopus [13]): 100 µg/mL (≈ 273 µM) | MIC (Fusarium [14]): 200 µg/mL (≈ 546 µM) | inhibition zone (IZ) (Rhizopus [15]): 12 mm | inhibition zone (IZ) (Pseudomonas aeruginosa [16]): inactive | inhibition zone (IZ) (Fusarium [17]): inactive | inhibition zone (IZ) (Bacillus subtilis [18]): 12 mm | inhibition zone (IZ) (Penicillium [19]): inactive | inhibition zone (IZ) (Aspergillus niger [20]): inactive

COC(=O)O/N=C1\CC(c2ccccc2)N(C)C(c2ccccc2)C1C (stereo not given)
MIC (Aspergillus flavus [1]): 100 µg/mL (≈ 284 µM) | MIC (Enterococcus faecalis [2]): 200 µg/mL (≈ 567 µM) | inhibition zone (IZ) (Klebsiella pneumoniae [3]): inactive | MIC (Klebsiella pneumoniae [4]): 200 µg/mL (≈ 567 µM) | inhibition zone (IZ) (Enterococcus faecalis [5]): inactive | inhibition zone (IZ) (Escherichia coli [6]): 12 mm | MIC (Bacillus subtilis [7]): 50 µg/mL (≈ 142 µM) | MIC (Pseudomonas aeruginosa [8]): 200 µg/mL (≈ 567 µM) | inhibition zone (IZ) (Aspergillus flavus [9]): 12 mm | MIC (Penicillium [10]): 200 µg/mL (≈ 567 µM) | MIC (Escherichia coli [11]): 50 µg/mL (≈ 142 µM) | MIC (Aspergillus niger [12]): 200 µg/mL (≈ 567 µM) | MIC (Rhizopus [13]): 200 µg/mL (≈ 567 µM) | MIC (Fusarium [14]): 200 µg/mL (≈ 567 µM) | inhibition zone (IZ) (Rhizopus [15]): inactive | inhibition zone (IZ) (Pseudomonas aeruginosa [16]): inactive | inhibition zone (IZ) (Fusarium [17]): inactive | inhibition zone (IZ) (Bacillus subtilis [18]): 12 mm | inhibition zone (IZ) (Penicillium [19]): inactive | inhibition zone (IZ) (Aspergillus niger [20]): inactive

CC(Cl)OC(=O)O/N=C1\CC(c2ccccc2)N(C)C(c2ccccc2)C1C(C)C (stereo not given)
MIC (Aspergillus flavus [1]): 25 µg/mL (≈ 58.3 µM) | MIC (Enterococcus faecalis [2]): 6.25 µg/mL (≈ 14.6 µM) | inhibition zone (IZ) (Klebsiella pneumoniae [3]): 32 mm | MIC (Klebsiella pneumoniae [4]): 6.25 µg/mL (≈ 14.6 µM) | inhibition zone (IZ) (Enterococcus faecalis [5]): 32 mm | inhibition zone (IZ) (Escherichia coli [6]): 22 mm | MIC (Bacillus subtilis [7]): 6.25 µg/mL (≈ 14.6 µM) | MIC (Pseudomonas aeruginosa [8]): 6.25 µg/mL (≈ 14.6 µM) | inhibition zone (IZ) (Aspergillus flavus [9]): 22 mm | MIC (Penicillium [10]): 12.5 µg/mL (≈ 29.1 µM) | MIC (Escherichia coli [11]): 12.5 µg/mL (≈ 29.1 µM) | MIC (Aspergillus niger [12]): 25 µg/mL (≈ 58.3 µM) | MIC (Rhizopus [13]): 25 µg/mL (≈ 58.3 µM) | MIC (Fusarium [14]): 12.5 µg/mL (≈ 29.1 µM) | inhibition zone (IZ) (Rhizopus [15]): 22 mm | inhibition zone (IZ) (Pseudomonas aeruginosa [16]): 32 mm | inhibition zone (IZ) (Fusarium [17]): 32 mm | inhibition zone (IZ) (Bacillus subtilis [18]): 32 mm | inhibition zone (IZ) (Penicillium [19]): 32 mm | inhibition zone (IZ) (Aspergillus niger [20]): 17 mm
